Laboratory results: patent publication EP1353942B1, “PEPTIDE INHIBITORS OF HIV ENTRY” (WHITEHEAD INSTITUTE FOR BIOMEDICAL RESEARCH, priority 2000, dated 2010)
Read-outs that look alike come from different tables or passages of the source.

How the values were obtained:
[1] = Circular dichroism (ellipticity at 222 nm, helicity); assay type: physicochemical; conditions: IZN17 at 20 µM
Procedure: (§1) Circular Dichroism. All CD measurements were performed on an Aviv 62 DS cirucular dichroism spectrometer. Standard scans were performed on 10 µM solutions of peptide in PBS (50 mM sodium phosphate, 150 mM sodium chloride [pH 7.4]) from 200 to 260 nm in a 1 cm pathlength cuvette with a 5 second averaging time. The mean residue ellipticity (θ) was calculated by dividing the raw signal by peptide concentration (M), pathlength (mm) and number of amino acids. Percent helicity was calculated according to Chen et al. (Biochemistry, 13, 1974, p3350). Thermal denaturation scans of 10 µM peptide solutions in PBS were recorded at 222 nm. The peptide was heated at two degree intervals starting at 4°C, with an equilibration time of 1.5 minutes and an averaging time of 60 seconds.
The following Table summarizes the biophysical data and inhibitory activity for the chimeric coiled coil N peptides. The first column (θ222nm) is circular dichroism data, representing the helicity of each peptide. The lower the number, the more helical. The second column is the melting temperature and signifies the temperature at which half of the peptide is unfolded. The next column (Mobs/Mcalc) signifies the oligomeric state of the peptide, with 3.0 being a discrete trimer. The final column is the concentration at which each peptide is at half maximal inhibitory potency for viral infection. Table 1. […]

[2] = Sedimentation equilibrium (analytical ultracentrifugation); assay type: physicochemical; conditions: for Mobs/Mcalc: 20 µM peptide solutions in PBS, 3.0 being a discrete trimer
Procedure: Sedimentation Equilibrium. All measurements were recorded on a Beckman XL-A analytical ultracentrifuge equipped with an An-60 Ti rotor. Lyophilized peptide was resuspended in water, and the peptide concentration was determined (Edelhoch, 1967). The solution was diluted to 100-200 µM and then dialized overnight against PBS. Following dialysis, the concentration was redetermined and the appropriate dilutions were made, using the dialysis buffer. The samples were centrifuged at speeds ranging from 19,000 to 25,000 RPM.
(§2) The following Table summarizes the biophysical data and inhibitory activity for the chimeric coiled coil N peptides. The first column (θ222nm) is circular dichroism data, representing the helicity of each peptide. The lower the number, the more helical. The second column is the melting temperature and signifies the temperature at which half of the peptide is unfolded. The next column (Mobs/Mcalc) signifies the oligomeric state of the peptide, with 3.0 being a discrete trimer. The final column is the concentration at which each peptide is at half maximal inhibitory potency for viral infection. Table 1. Biophysical data and HIV-1 inhibitory activity
(§3) The second column is the ellipticity at 222 nm of a 20 µM solution of peptide in PBS. The third column lists the midpoint of thermal denaturation of 10 µM solutions of peptide in PBS.

[3] = tested on: HIV-1
Procedure: HIV Infectivity Assay. Inhibitory activity was determined in an HIV luciferase assay (Chen et al., 1994). Specifically, virus was made by cotransfecting 293T cells with an HIV-1 genome containing a frame-shift mutation in env and luciferase replacing the nef gene (NL43LucR-E-) along with pCMVHXB2, an expression vector with the HXB2 gp160 gene. The resultant virus is only viable for one round of infection since its genome lacks the envelope gene. The cellular debris was removed by low-speed centrifugation. The remaining viral supernatant was used to infect HOS-CD4/Fusion cells (N. Landau, National Institutes of Health AIDS Reagent Program) in the presence of the potentially inhibitory peptides. Two days post-infection, the cells were lysed and luciferase activity was monitored on a Wallac AutoLumat LB953 luminometer (Gaithersburg, MD). IC50s (the peptide concentration at which half of the viral infection is inhibited) were calculated by fitting the data to a Langmuir equation [y = k/(1+[peptide]/IC50)], where y = luciferase activity and k is a scaling constant.

[4] = Thermal denaturation followed by circular dichroism at 222 nm; assay type: physicochemical
Procedure: as §1, §2, §3

[5] = molecular target: HIV-1 gp41 (C peptide region), from HXB2 gp160 envelope on pseudotyped virus (HIV-1 (HXB2)) (UniProt P04578); test: cell-based or functional assay

| Substance | helicity (in words) [1] | Mobs/Mcalc [2] | oligomeric state (in words) ([2]; sedimentation equilibrium, IZN17 at 20 µM) | IC50 ([3]; concentration of peptide at which half of viral infectivity is inhibited, HOS-CD4/Fusion cells, HXB2 envelope, tentative values) [nM] | IC50 ([3]; read-out: IC50 in the viral infectivity assay, viral infectivity assay) [nM] | thermal denaturation temperature relative to IQN17 ([4]; In 2 M GuHCl) | Melting Temperature ([4]; midpoint of thermal denaturation of 10 µM solutions of peptide in PBS) [°C] | melt (thermal unfolding) ([4]; no denaturant) | IC50 (nm), HIV-1 luciferase viral infectivity assay (HXB2 env pseudotyped virus on HOS-CD4/Fusin cells) [5] [nM] |
| --- | --- | --- | --- | --- | --- | --- | --- | --- | --- |
| Ac-IKKEIEAIKKEQEAIKKKIEAIEKLLQLTVWGIKQLQARIL-NH2 [IZN17] | helical | 3.05 | discretely trimeric | 5.6 | ~5.6 | ten degrees higher | >100 | above 100 °C |  |
| Ac-YGGIKKEIEAIKKEQEAIKKKIEAIEKEIVQARQLLSGIVQQQNNLLRAIEAQQH-NH2 [IZN26] |  | ∼2.87 |  |  |  |  |  |  |  |
| IZN17 (peptide) |  |  |  |  |  |  |  |  | 5.6 |
